# Assay results from US20120094998A1, “Oligomer-Protein Tyrosine Kinase Inhibitor Conjugates” (Nektar Therapeutics, priority 2009, published 2012).
# Where two headings read alike, the source gives them in different places.
# How the values were obtained:
# Assay type in all cases: biochemical
# PKG1-beta = biological target: T1, PKG1-beta (Homo sapiens, UniProt Q13976); test: Activity against various protein tyrosine kinases: PKG1-beta; details: for inhibition at 0.01 µM: 10 nM
# T1 sequence (Q13976 1-686 isoform Q13976-2): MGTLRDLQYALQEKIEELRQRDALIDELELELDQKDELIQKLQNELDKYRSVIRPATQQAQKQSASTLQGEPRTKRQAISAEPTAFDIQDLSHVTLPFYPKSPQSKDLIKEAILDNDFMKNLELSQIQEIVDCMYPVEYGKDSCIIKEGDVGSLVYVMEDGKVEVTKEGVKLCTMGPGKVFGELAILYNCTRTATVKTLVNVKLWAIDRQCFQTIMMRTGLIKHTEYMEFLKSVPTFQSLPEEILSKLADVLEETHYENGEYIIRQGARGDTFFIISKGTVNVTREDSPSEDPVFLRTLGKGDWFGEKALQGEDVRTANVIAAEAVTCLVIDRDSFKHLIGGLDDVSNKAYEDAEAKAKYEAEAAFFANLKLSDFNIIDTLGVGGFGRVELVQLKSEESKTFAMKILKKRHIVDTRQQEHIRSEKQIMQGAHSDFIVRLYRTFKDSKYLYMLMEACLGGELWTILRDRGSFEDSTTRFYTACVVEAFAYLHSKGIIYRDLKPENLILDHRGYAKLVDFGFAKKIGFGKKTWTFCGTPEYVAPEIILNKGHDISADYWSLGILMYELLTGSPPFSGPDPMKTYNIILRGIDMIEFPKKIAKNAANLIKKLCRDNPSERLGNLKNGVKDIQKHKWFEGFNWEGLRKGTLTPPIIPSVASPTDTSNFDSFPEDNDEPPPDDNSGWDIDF
# Description: (§1) Using techniques know those of ordinary skill in the art, compounds were tested for activity against various protein tyrosine kinases.
# EPHA2 = EPHA2 (Homo sapiens, UniProt P29317); test: Activity against various protein tyrosine kinases: EPHA2; details: for inhibition at 0.01 µM: 10 nM
# Sequence of EPHA2 (P29317 24-976, species assumed): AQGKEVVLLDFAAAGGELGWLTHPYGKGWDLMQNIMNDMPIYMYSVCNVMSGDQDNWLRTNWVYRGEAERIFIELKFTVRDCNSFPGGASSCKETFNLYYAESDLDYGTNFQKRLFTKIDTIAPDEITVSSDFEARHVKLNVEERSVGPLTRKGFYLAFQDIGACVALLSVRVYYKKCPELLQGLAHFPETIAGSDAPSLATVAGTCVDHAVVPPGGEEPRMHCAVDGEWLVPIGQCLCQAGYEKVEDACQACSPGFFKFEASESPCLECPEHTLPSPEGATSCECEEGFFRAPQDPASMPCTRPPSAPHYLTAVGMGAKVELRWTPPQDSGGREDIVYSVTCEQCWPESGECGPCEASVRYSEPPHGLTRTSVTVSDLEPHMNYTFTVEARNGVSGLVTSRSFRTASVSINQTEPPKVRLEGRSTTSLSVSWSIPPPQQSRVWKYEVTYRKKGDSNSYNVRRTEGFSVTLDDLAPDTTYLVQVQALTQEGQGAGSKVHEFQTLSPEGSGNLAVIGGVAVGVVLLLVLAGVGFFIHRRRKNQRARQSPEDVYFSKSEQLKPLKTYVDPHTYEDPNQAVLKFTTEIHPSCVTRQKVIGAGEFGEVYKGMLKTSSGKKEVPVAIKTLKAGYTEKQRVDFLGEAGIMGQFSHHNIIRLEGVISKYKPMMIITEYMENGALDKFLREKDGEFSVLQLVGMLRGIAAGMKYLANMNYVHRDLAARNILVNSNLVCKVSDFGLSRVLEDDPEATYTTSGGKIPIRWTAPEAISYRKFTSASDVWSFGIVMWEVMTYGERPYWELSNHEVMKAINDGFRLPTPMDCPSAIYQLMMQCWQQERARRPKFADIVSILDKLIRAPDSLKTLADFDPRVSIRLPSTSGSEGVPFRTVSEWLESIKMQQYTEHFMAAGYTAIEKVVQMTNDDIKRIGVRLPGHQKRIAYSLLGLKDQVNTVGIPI
# Description: as §1
# IKK-beta = biological target: T2, IKK-beta (Homo sapiens, UniProt O14920); test: Activity against various protein tyrosine kinases: IKK-beta; details: for inhibition at 0.01 µM: 10 nM
# T2 sequence (O14920 1-756): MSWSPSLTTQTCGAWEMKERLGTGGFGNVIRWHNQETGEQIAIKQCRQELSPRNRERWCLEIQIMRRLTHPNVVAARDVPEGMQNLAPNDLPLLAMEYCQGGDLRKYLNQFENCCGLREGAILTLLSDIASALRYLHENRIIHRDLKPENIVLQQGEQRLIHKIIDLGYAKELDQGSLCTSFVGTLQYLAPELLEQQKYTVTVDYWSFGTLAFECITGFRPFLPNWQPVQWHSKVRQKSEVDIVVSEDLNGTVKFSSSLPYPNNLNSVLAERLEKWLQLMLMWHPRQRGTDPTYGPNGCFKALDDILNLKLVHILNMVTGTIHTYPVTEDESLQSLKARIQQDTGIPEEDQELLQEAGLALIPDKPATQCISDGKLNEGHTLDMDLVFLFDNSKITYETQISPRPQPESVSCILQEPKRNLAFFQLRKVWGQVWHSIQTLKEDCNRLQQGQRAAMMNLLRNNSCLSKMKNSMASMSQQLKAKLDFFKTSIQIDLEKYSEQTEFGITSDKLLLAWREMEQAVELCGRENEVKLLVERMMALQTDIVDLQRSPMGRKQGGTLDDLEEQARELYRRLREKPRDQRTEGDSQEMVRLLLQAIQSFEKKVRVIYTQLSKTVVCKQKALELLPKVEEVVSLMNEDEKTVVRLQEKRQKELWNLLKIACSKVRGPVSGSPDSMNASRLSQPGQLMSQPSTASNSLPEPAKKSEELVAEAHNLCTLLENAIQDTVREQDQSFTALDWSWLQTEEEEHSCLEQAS
# Description: as §1
# ABL (T315I) = ABL (T315I) (Homo sapiens, UniProt P00519, T315I); test: Activity against various protein tyrosine kinases: ABL (T315I); details: for inhibition at 0.01 µM: read-out: % Inhibition at 10 nM; for inhibition at 1 µM: read-out: % Inhibition at 1 μM
# Description: as §1
# LCK = LCK (Homo sapiens, UniProt P06239); test: Activity against various protein tyrosine kinases: LCK; details: for inhibition at 0.01 µM: 10 nM
# Sequence of LCK (P06239 whole entry, species assumed): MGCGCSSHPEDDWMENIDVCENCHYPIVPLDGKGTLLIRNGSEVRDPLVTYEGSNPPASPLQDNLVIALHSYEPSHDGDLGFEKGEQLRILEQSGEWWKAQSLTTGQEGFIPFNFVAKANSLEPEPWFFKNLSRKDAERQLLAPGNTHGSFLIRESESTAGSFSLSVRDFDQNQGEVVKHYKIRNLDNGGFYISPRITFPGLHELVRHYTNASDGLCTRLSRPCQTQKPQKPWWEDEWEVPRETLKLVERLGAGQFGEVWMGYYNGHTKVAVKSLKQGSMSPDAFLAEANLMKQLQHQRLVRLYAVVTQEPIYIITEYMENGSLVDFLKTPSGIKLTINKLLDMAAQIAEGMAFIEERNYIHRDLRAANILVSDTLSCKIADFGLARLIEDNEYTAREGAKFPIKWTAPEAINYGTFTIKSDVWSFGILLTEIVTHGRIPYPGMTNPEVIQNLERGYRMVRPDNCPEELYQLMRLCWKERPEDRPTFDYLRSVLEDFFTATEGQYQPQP
# Description: as §1
# FYN = FYN (Homo sapiens, UniProt P06241); test: Activity against various protein tyrosine kinases: FYN; details: for inhibition at 0.01 µM: 10 nM
# Sequence of FYN (P06241 whole entry, species assumed): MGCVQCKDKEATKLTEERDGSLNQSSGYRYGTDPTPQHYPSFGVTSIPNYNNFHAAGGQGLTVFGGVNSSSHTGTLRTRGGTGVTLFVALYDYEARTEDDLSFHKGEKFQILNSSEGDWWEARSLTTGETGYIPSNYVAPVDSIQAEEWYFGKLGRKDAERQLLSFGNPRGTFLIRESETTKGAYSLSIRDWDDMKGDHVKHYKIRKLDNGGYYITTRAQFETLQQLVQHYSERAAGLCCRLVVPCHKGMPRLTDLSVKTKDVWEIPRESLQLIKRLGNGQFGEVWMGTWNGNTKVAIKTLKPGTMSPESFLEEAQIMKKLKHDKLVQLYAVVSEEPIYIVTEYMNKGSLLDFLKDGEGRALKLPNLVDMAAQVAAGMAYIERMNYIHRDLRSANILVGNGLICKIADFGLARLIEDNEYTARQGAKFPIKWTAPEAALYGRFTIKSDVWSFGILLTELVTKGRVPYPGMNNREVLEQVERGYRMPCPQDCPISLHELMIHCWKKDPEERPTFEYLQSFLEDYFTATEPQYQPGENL
# Description: as §1
# Flt3 (D835Y) = biological target: T3, Flt3 (D835Y) (Homo sapiens, UniProt P36888, D835Y); test: Activity against various protein tyrosine kinases: Flt3 (D835Y); details: for inhibition at 0.01 µM: 10 nM
# T3 sequence (P36888 27-993 D835Y): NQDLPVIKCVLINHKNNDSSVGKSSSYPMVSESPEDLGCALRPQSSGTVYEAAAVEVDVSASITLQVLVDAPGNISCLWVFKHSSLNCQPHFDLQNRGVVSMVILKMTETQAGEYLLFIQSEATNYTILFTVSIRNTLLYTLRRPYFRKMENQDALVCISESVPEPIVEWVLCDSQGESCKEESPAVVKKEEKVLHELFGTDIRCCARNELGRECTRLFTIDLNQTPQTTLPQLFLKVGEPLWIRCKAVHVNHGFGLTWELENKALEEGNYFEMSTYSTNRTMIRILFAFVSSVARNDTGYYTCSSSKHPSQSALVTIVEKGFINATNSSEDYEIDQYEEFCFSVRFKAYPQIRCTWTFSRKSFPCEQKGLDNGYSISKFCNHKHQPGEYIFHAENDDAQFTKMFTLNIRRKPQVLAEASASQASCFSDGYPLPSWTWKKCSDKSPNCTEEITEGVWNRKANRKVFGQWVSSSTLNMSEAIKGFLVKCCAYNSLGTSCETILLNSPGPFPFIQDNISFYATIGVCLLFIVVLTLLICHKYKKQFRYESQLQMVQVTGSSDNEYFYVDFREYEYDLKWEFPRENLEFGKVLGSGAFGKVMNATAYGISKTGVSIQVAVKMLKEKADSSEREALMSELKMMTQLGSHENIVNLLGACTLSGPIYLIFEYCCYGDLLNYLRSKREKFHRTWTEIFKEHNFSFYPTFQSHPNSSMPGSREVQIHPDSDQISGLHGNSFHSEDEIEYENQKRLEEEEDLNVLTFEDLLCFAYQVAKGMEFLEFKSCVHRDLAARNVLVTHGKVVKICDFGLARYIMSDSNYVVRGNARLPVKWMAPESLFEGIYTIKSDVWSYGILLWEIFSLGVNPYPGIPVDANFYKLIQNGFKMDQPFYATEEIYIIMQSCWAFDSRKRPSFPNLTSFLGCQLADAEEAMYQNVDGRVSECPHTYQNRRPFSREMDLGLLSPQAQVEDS
# Description: as §1
# Erk1 = Erk1 (Homo sapiens, UniProt P27361); test: Activity against various protein tyrosine kinases: Erk1; details: for inhibition at 0.01 µM: 10 nM
# Sequence of Erk1 (P27361 whole entry, species assumed): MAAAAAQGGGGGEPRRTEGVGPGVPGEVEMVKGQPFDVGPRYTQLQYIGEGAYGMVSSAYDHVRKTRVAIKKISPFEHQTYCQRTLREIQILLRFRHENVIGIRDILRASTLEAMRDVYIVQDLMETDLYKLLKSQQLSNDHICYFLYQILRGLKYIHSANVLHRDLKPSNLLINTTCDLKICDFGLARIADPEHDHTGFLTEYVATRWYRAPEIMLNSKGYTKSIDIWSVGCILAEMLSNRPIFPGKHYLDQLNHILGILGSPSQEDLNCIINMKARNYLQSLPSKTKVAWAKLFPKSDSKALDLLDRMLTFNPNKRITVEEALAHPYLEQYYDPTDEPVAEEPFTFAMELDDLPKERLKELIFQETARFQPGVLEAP
# Description: as §1
inhibition at 0.01 µM (PKG1-beta),inhibition at 1 µM (PKG1-beta),inhibition at 0.01 µM (EPHA2),inhibition at 1 µM (EPHA2),inhibition at 0.01 µM (IKK-beta),inhibition at 1 µM (IKK-beta),"inhibition at 0.01 µM (ABL (T315I); ABL (T315I), 10 nM)","inhibition at 1 µM (ABL (T315I); ABL (T315I), 1 μM)",inhibition at 0.01 µM (LCK),inhibition at 1 µM (LCK),inhibition at 0.01 µM (FYN),inhibition at 1 µM (FYN),inhibition at 0.01 µM (Flt3 (D835Y)),inhibition at 1 µM (Flt3 (D835Y)),inhibition at 0.01 µM (Erk1),inhibition at 1 µM (Erk1),inhibition at 0.01 µM (ABL (T315I)),inhibition at 1 µM (ABL (T315I)),Compound
-3%,-3%,36%,101%,2%,2%,4%,26%,98%,98%,98%,98%,3%,7%,3%,4%,,,COCCOCCOCCOCCOCCOCCOCCNC(=O)OCCN1CCN(c2cc(Nc3ncc(C(=O)Nc4c(C)cccc4Cl)s3)nc(C)n2)CC1 [mPEG7-NHCOO-Dasatinib]
-2%,0%,40%,100%,0%,1%,,,97%,98%,98%,99%,6%,10%,3%,2%,1%,36%,COCCOCCOCCNC(=O)OCCN1CCN(c2cc(Nc3ncc(C(=O)Nc4c(C)cccc4Cl)s3)nc(C)n2)CC1 [mPEG3-NHCOO-Dasatinib]
